{
  "source": "patent US10040802B2",
  "about": "“Thienopyrazine inhibitors of IRAK4 activity” (MERCK SHARP & DOHME CORP., priority 2015, dated 2018)",
  "note": "Where a name gives a salt, the structure may show the parent alone.",
  "data": [
    {"molecular_target": "GST tagged IRAK4 (Homo sapiens (Human), UniProt Q9NWZ3)", "sequence (Q9NWZ3 whole entry)": "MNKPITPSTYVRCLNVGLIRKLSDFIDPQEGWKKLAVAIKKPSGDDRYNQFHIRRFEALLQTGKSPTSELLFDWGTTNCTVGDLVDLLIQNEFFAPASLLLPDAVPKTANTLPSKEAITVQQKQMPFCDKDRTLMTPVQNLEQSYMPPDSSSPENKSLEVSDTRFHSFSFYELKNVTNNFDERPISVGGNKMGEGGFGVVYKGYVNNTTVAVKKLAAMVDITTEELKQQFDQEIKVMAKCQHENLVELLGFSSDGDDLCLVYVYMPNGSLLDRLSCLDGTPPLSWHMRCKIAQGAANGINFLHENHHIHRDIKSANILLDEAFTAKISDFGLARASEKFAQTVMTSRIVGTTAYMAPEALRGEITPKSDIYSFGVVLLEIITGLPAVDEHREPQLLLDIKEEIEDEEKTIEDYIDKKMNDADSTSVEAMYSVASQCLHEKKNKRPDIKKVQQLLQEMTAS", "assay": "IRAK4 Kinase Assay (IMAP fluorescence polarization)", "type": "biochemical", "conditions": "0.5 nM GST tagged IRAK4, 100 μM ATP, 30 minutes at 25° C.", "how_it_was_run": "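GST-tagged IRAK4 (0.5 nM) phosphorylates 100 nM fluorescent peptide with 100 μM ATP in 10 mM Tris pH 7.2, 1 mM MgCl2, 1 mM DTT, 0.01% Tween 20 for 30 min at 25 °C. Phosphorylation read as IMAP nanoparticle-binding fluorescence polarization after stop reagent.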", "units": {"IC50": "nM"}, "values": [
      {"smiles": "N#Cc1ccccc1NC(=O)c1csc2ncc(N3CCNCC4(CC4)C3)nc12", "note": "[Example 83, N-(2-cyanophenyl)-2-(5,8-diazaspiro-[2.6]non-5-yl)-thieno[2,3-b]-pyrazine-7-carboxamide trifluoroacetate]", "IC50": 899},
      {"smiles": "Cn1cc(NC(=O)c2csc3ncc(N[C@@H]4CCCC[C@@H]4N)nc23)c(C(F)F)n1", "note": "[Example 25, 2-{[(1R,2S)-2-aminocyclohexyl]amino}-N-[3-(difluoromethyl)-1-methyl-1H-pyrazol-4-yl]thieno[2,3-b] pyrazine-7-carboxamide trifluoroacetate]", "IC50": 0.2},
      {"smiles": "Cn1cc(NC(=O)c2csc3ncc(N4C5CCC4CNC5)nc23)c(C(F)(F)F)n1", "note": "[Example 45, 2-(3,8-diazabicyclo[3.2.1]oct-8-yl)-N-[1-methyl-3-(trifluoromethyl)-1H-pyrazol-4-yl]thieno[2,3-b] pyrazine-7-carboxamide trifluoroacetate]", "IC50": 2},
      {"smiles": "N#Cc1cscc1NC(=O)c1csc2ncc(N[C@@H]3CCCC(F)(F)[C@@H]3N)nc12", "note": "[Example 79, 2-{[(1R,2R)-2-amino-3,3-difluorocyclohexyl]amino}-N-(4-cyanothiophen-3-yl) thieno[2,3-b] pyrazine-7-carboxamide trifluoroacetate]", "IC50": 371},
      {"smiles": "N#Cc1ccccc1NC(=O)c1csc2ncc(N[C@@H]3CCCC(F)(F)[C@@H]3N)nc12", "note": "[Example 105, 2-{[(1R,2R)-2-amino-3,3-difluorocyclohexyl]-amino}-N-(2-cyanophenyl)-thieno[2,3-b]-pyrazine-7-carboxamide trifluoroacetate]", "IC50": 146},
      {"smiles": "N[C@H]1CCCC[C@H]1Nc1cnc2scc(C(=O)Nc3ccccc3C(F)F)c2n1", "note": "[Example 102, 2-{[(1R,2S)-2-aminocyclohexyl]-amino}-N-[2-(difluoromethyl)phenyl]thieno-[2,3-b]-pyrazine-7-carboxamide trifluoroacetate]", "IC50": 25},
      {"smiles": "N#Cc1ccccc1NC(=O)c1csc2ncc(N3CCC[C@@H](N)C3)nc12", "note": "[Example 84, 2-[(3R)-3-aminopiperidin-1-yl]-N-(2-cyanophenyl)-thieno[2,3-b]-pyrazine-7-carboxamide trifluoroacetate]", "IC50": 33},
      {"smiles": "O=C(Nc1ccccc1C(F)F)c1csc2ncc(N3C[C@H]4CC[C@@H]3CN4)nc12", "note": "(single isomer, unassigned) [Example 104, 2-[(1S,4S)- or (1R,4R)-2,5-diazabicyclo-[2.2.2]oct-2-yl]-N-[2-(difluoro-methyl)phenyl]-thieno[2,3-b]-pyrazine-7-carboxamide trifluoroacetate]", "IC50": 4180},
      {"smiles": "Cn1cc(NC(=O)c2csc3ncc(N4C[C@@H]5CC[C@H]4CN5)nc23)c(Cl)n1", "note": "(single isomer, unassigned) [Example 16, N-(3-chloro-1-methyl-1H-pyrazol-4-yl)-2-[(1S,4S)- or (1R,4R)-2,5-diazabicyclo[2.2.2]oct-2-yl]thieno[2,3-b] pyrazine-7-carboxamide trifluoroacetate]", "IC50": 73},
      {"smiles": "O=C(Nc1ccsc1Br)c1csc2ncc(N3CCCNCC3)nc12", "note": "[Example 51, N-(2-bromothiophen-3-yl)-2-(1,4-diazepan-1-yl)thieno[2,3-b] pyrazine-7-carboxamide trifluoroacetate]", "IC50": 1160},
      {"smiles": "N#Cc1cscc1NC(=O)c1csc2ncc(N3C[C@H]4CC[C@@H]3CN4)nc12", "note": "(single isomer, unassigned) [Example 66, N-(4-cyanothiophen-3-yl)-2-[(1S,4S)- or (1R,4R)-2,5-diazabicylo[2.2.2]oct-2-yl]thieno[2,3-b] pyrazine-7-carboxamide formate]", "IC50": 220},
      {"smiles": "O=C(Nc1cscc1Cl)c1csc2ncc(N3C[C@H]4CC[C@@H]3CN4)nc12", "note": "(single isomer, unassigned) [Example 109, N-(4-chlorothiophen-3-yl)-2-[(1S,4S)- or (1R,4R)-2,5-diazabicyclo-[2.2.2]oct-2-yl]-thieno[2,3-b]-pyrazine-7-carboxamide trifluoroacetate]", "IC50": 104},
      {"smiles": "O=C(Nc1ccsc1Cl)c1csc2ncc(N3CCCNCC3)nc12", "note": "[Example 52, N-(2-chlorothiophen-3-yl)-2-(1,4-diazepan-1-yl)thieno[2,3-b] pyrazine-7-carboxamide trifluoroacetate]", "IC50": 585},
      {"smiles": "N#Cc1sccc1NC(=O)c1csc2ncc(N[C@@H]3CCCC[C@@H]3N)nc12", "note": "[Example 77, 2-{[(1R,2S)-2-amino-cyclohexyl]amino}-N-(2-(cyanothiophen-3-yl)thieno[2,3-b]pyrazine-7-carboxamide trifluoroacetate]", "IC50": 0.5},
      {"smiles": "O=C(Nc1cscc1Br)c1csc2ncc(N3C[C@@H]4CC[C@H]3CN4)nc12", "note": "(single isomer, unassigned) [Example 46, N-(4-bromothiophen-3-yl)-2-[(1S,4S)- or (1R,4R)-2,5-diazabicyclo[2.2.2]oct-2-yl]thieno[2,3-b] pyrazine-7-carboxamide]", "IC50": 812},
      {"smiles": "Cn1cc(NC(=O)c2csc3ncc(N4C[C@@H]5CC[C@H]4CN5)nc23)c(C(F)F)n1", "note": "(single isomer, unassigned) [Example 22, 2-[(1S,4S)- or (1R,4R)-2,5-diazabicyclo[2.2.2]oct-2-yl]-N-[3-(difluoromethyl)-1-methyl-1H-pyrazol-4-yl]thieno[2,3-b] pyrazine-7-carboxamide trifluoroacetate]", "IC50": 7},
      {"smiles": "N[C@@H]1[C@H](Nc2cnc3scc(C(=O)Nc4ccsc4Br)c3n2)CCCC1(F)F", "note": "[Example 71, 2-{[(1R,2R)-2-amino-3,3-difluorocyclohexyl]amino}-N-(2-bromothiophen-3-yl) thieno[2,3-b] pyrazine-7-carboxamide trifluoroacetate]", "IC50": 2070},
      {"smiles": "Cn1cc(NC(=O)c2csc3ncc(N4CCC[C@@H](N)C4)nc23)c(C(F)(F)F)n1", "note": "[Example 9, 2-[(3R)-3-aminopiperidin-1-yl]-N-[1-methyl-3-(trifluoromethyl)-1H-pyrazol-4-yl] thieno[2,3-b] pyrazine-7-carboxamide trifluoroacetate]", "IC50": 1},
      {"smiles": "N#Cc1ccccc1NC(=O)c1csc2ncc(N[C@@H]3CCCC[C@@H]3N)nc12", "note": "[Example 95, 2-{[(1R,2S)-2-aminocyclohexyl]-amino}-N-(2-cyanophenyl)-thieno[2,3-b]-pyrazine-7-carboxamide trifluoroacetate]", "IC50": 0.5},
      {"smiles": "Cn1cc(NC(=O)c2csc3ncc(N4CC5CCC4CN5)nc23)c(C(F)F)n1", "note": "(stereo not shown) [Example 11, 2-(2,5-diazabicyclo[2.2.2]oct-2-yl)-N-[3-(difluoromethyl)-1-methyl-1H-pyrazol-4-yl]thieno[2,3-b] pyrazine-7-carboxamide]", "IC50": 4},
      {"smiles": "Cn1cc(NC(=O)c2csc3ncc(N4CC5CCC(C4)N5)nc23)c(C(F)(F)F)n1", "note": "[Example 41, 2-(3,8-diazabicyclo[3.2.1]oct-3-yl)-N-[1-methyl-3-(trifluoromethyl)-1H-pyrazol-4-yl]thieno[2,3-b] pyrazine-7-carboxamide trifluoroacetate]", "IC50": 18},
      {"smiles": "N[C@@H]1[C@H](Nc2cnc3scc(C(=O)Nc4ccccc4Br)c3n2)CCCC1(F)F", "note": "[Example 96, 2-{[(1R,2R)-2-amino-3,3-difluorocyclo-hexyl]amino}-N-(2-bromo-phenyl)thieno-[2,3-b]-pyrazine-7-carboxamide]", "IC50": 2010}
    ]}
  ]
}
